Results on one compound are retold here after patent publication US5739166A, “Substituted terphenyl compounds for the treatment of inflammation” (G.D. Searle & Co., priority 1994, dated 1998).

For this experiment, the system named is hyperalgesic foot withdrawal. Nature of the experiment: Rat Carrageenan-induced Analgesia Test. The class given is in vivo, Male Sprague-Dawley rats. As to conditions: oral, assay performed at 50 mg/kg body weight, 3 hours after carrageenan.

Protocol: Male Sprague-Dawley rats were treated as previously described for the Carrageenan Foot Pad Edema test. Three hours after the injection of the carrageenan, the rats were placed in a special plexiglass container with a transparent floor having a high intensity lamp as a radiant heat source; positionable under the floor. After an initial twenty minute period, thermal stimulation was begun on either the injected foot or on the contralateral uninjected foot. A photoelectric cell turned off the lamp and timer when light was interrupted by paw withdrawal. The time until the rat withdraws its foot was then measured. The withdrawal latency in seconds was determined for the control and drug-treated groups, and percent inhibition of the hyperalgesic foot withdrawal determined.

On to `COc1ccc(-c2cc(F)c(F)cc2-c2ccc(S(N)(=O)=O)cc2)cc1Cl` [Example 20, 4-[2-(3-chloro-4-methoxyphenyl)-4,5-difluorophenyl]benzenesulfonamide], for which the “ANALGESIA % Inhibition” value is given as 22%.
